Experimental findings from article PMC6156138, “Combination of a Latency-Reversing Agent With a Smac Mimetic Minimizes Secondary HIV-1 Infection in vitro” (Frontiers in Microbiology, 2018) are described below.

Common to all, as to type: cell-based
One data set has as its system ACH-2 cells. Nature of the data set: Living cell numbers of ACH-2 cells in the presence of drug(s). The settings on record: birinapant 50 nM; for cell toxicity / replication of ACH-2 cells: PEP005 5 nM (Figure 2C). The method, then: FIGURE 2 (A) Effect of birinapant when combined with TNF-α. The supernatant p24 levels with birinapant (1∼100 nM) in ACH-2 cell culture on day 2 are shown in white bars, and p24 values with birinapant when combined with TNF-α (10 ng/ml) are shown in black bars. (B) HIV-1 production from ACH-2 cells when reactivated by PEP005 (0.05∼50 nM) for 24 h. (C) Changes in the living cell numbers in the presence of drug(s) on days 1, 3, and 5.

Data set [1] in a line: Cytotoxicity assay (Cytotoxicity LDH Assay Kit). Conditions: human. The method, then: To determine the cytotoxicity induced by LRAs and its related compounds, cells (5 × 10^5 cells/mL) were cultured in the presence or absence of LRA. After 24 h, cytotoxicity assays were performed using a Cytotoxicity LDH Assay Kit (Dojindo, Kumamoto, Japan) according to the manufacturer’s instructions. The number of living cells with the drug was measured and compared with those without the drug, and data are shown as percentage (%) of control.

Data set [2] has as its system latent HIV-1-infected U1 cells. The experiment in a line: HIV reactivation from latent cells: supernatant p24 antigen. Conditions: day 2, single drug (Figure 1B). The method, then: The reactivation of HIV-1 from latently infected cells was determined by the measurement of supernatant p24 antigen and intracellular HIV-1 RNA levels. ACH-2 cells or U1 cells (5 × 10^5 cells/mL) were placed in 96-well plates, and then the cells were incubated with different concentrations of drugs for 24 h to extract RNA and for 48 h to collect the supernatant. The increase in supernatant p24 antigen levels was measured using […] G1200 (Fujirebio, Tokyo, Japan). The total RNA was extracted using an RNeasy Mini Kit (Qiagen, Hilden, Germany), following the manufacturer’s protocols. The cDNA was synthesized using PrimeScript RT Master Mix (Takara Bio, Shiga, Japan), and quantitative real-time PCR analyses for the intracellular HIV-1 RNA were carried out with PowerUp^TM SYBR Green Master Mix (Applied Biosystems, Foster City, CA, United States). The oligonucleotide primers used were as follows: 5′-[…]-3′ (forward) and 5′-[…]-3′ (reverse) for HIV-RNA detection; 5′-[…]-3′ (forward) and 5′-[…]-3′ (reverse) for β-actin. The HIV-RNA expressions were normalized with that of β-actin, which was indicated as the relative quantity, and the increase in HIV-1 RNA levels in the presence of a drug was compared with that without a drug.
FIGURE 1 (A,B) The increase in viral production from ACH-2 cells (A) and U1 cells (B) was examined by supernatant p24 antigen levels on day 2. (C,D) Changes in the intracellular HIV-1 mRNA levels due to treatment with these drugs in ACH-2 cells (C) and U1 cells (D) after 24 h of incubation.

A further data set deals with cIAP. Nature of the data set: Determination of cIAP expression (western blotting). The settings on record: ACH-2 cells, 24 h; birinapant 50 nM, PEP005 5 nM, TNF-α 10 ng/ml. The method, then:
ACH-2 cells (1 × 10^6 cells/ml) were treated with different concentrations of the drug for 24 h, and the cells were washed twice with PBS. Cells were homogenized by CelLytic M Cell Lysis Reagent (Sigma-Aldrich, St. Louis, MO, United States) containing a protease inhibitor cocktail (Nacalai Tesque, Kyoto, Japan) and were incubated at room temperature (RT) for 15 min. The cells were then centrifuged at 13,000 rpm for 15 min, and the supernatant of the whole cell lysate was collected. The bicinchoninic acid (BCA) protein assay (Thermo Scientific, Rockford, IL, United States) was used to measure the actual protein amount in the treated and untreated cells. The protein extracts were separated through sodium dodecyl sulfate polyacrylamide gel electrophoresis (SDS-PAGE) and then were blotted onto a Trans Blot Turbo polyvinylidene difluoride (PVDF) membrane (Bio-Rad, Hercules, CA, United States). Protein bands were visualized using 3,3′,5,5′-tetramethylbenzidine (TMB) solution (Wako Pure Chemical). The sources of the antibodies were as follows: c-IAP1 (D5G9), c-IAP2 (58C7), and XIAP (3B6) were purchased from Cell Signaling Technology (Danvers, MA, United States); β-actin (C4) was purchased from Santa Cruz Biotechnology.
Supplementary file Data_Sheet_5.PDF: FIGURE S5 Western blotting (WB) analysis for IAP family proteins in ACH-2 cells. Cells were exposed to birinapant (50 nM) in the presence or absence of PEP005 (5 nM), with TNF-α (10 ng/ml) co-treatment for 24 h, and cell lysates were used for WB analysis. Click here for additional data file.
Background: Immunoblotting shows a protein as a band on a membrane.

Data set [3] in a line: Toxicity on PHA-stimulated PBMCs from healthy donor (WST-8 assay). The settings on record: human. The method, then:
Table S1. CC50 values on PHA-stimulated PBMCs from healthy donor
PBMCs (2 x 10^6 cells/ml) were treated with birinapant or PEP005 and cultured for 3days. Cell viability was
Table S2. Toxicity of PEP005 and birinapant in combination
Agent (concentration) % replication
PEP005 (1 µM) + birinapant (1 µM) 65.5 %
PBMCs (2 x 10^6 cells/ml) were treated with birinapant (10 nM - 10 µM) and/or PEP005 (10 nM - 100 µM)
and cultured for 3 days. Cell viability was measured by WST-8 assay.
(Tetrazolium dyes change colour on reduction, which living cells bring about.)

Setting [4] is: A3.01 cells, read-out: CC50 ± SD against A3.01.
[5] abbreviates: ACH-2 cells, read-out: CC50 ± SD against ACH-2.
The mark [6] stands for this setting: HL-60 cells, read-out: CC50 ± SD against HL-60.
[7] abbreviates: J1.1 cells, read-out: CC50 ± SD against J1.1.
[8] abbreviates: Jurkat cells, read-out: CC50 ± SD against Jurkat.
The mark [9] stands for this setting: OM10.1 cells, read-out: CC50 ± SD against OM10.1.
Setting [10] is: U1 cells, read-out: CC50 ± SD against U1.
Setting [11] is: U937 cells, read-out: CC50 ± SD against U937.

Structures are written as SMILES. Like-named read-outs stand apart in the source and are kept apart here. A value given as a limit tells only on which side of the number the result lay.

By CC50 is commonly meant the concentration giving 50% cytotoxicity. As for `CC[C@H](NC(=O)[C@H](C)NC)C(=O)N1C[C@@H](O)C[C@H]1Cc1c(-c2[nH]c3cc(F)ccc3c2C[C@@H]2C[C@H](O)CN2C(=O)[C@H](CC)NC(=O)[C@H](C)NC)[nH]c2cc(F)ccc12` [Birinapant], in the data set with ACH-2 cells, the “cell toxicity / replication of ACH-2 cells” value is on record as “failed to show cell toxicity”. Further, the CC50 at 24 h in data set [1] (setting [4]) is 0.2 ± 0.08 µM; in data set [1] (setting [5]) it was greater than 100 µM; in data set [1] (setting [6]) it was greater than 100 µM; in data set [1] (setting [7]), 48 ± 0.9 µM; in data set [1] (setting [8]) it was 13 ± 0.1 µM; in data set [1] (setting [9]) it was 53 ± 8 µM. The CC50 at 24 h in data set [1] (setting [10]) and in data set [1] (setting [11]) was greater than 100 µM in each case. Also, the “viral production (supernatant p24 antigen levels)” value in data set [2] is recorded as “only had a minor effect on HIV-1 reactivation”. Further, the “cIAP expression (western blotting)” value with cIAP is on record as “decreased expression of cIAP”. Moreover, the CC50 at 3 days in data set [3] worked out at 10.7 ± 0.2 µM.

In the case of `C/C=C(/C)C(=O)O[C@H]1C(C)=C[C@]23C(=O)[C@@H](C=C(CO)[C@@H](O)[C@]12O)[C@H]1[C@@H](C[C@H]3C)C1(C)C` [PEP005, ingenol-3-angelate], the “cell toxicity / replication of ACH-2 cells” value in the data set with ACH-2 cells was “strongly inhibited the replication of ACH-2 cells”. In addition, the “number of living cells” value with ACH-2 cells (day 5, PEP005 5 nM) came out at 370000 mL⁻¹. For the same compound, the CC50 at 24 h in data set [1] (setting [4]) was 47 ± 9 µM; in data set [1] (setting [5]), 19 ± 0.4 µM; in data set [1] (setting [6]) it was greater than 100 µM; in data set [1] (setting [7]), 44 ± 2 µM; in data set [1] (setting [8]), 16 ± 3 µM; in data set [1] (setting [9]), 84 ± 6 µM. Moreover, the CC50 at 24 h in data set [1] (setting [10]) and in data set [1] (setting [11]) was greater than 100 µM throughout. The “viral production (supernatant p24 antigen levels)” value in data set [2] is on record as “increased viral production”. In addition, in the data set on cIAP, the “cIAP expression (western blotting)” value was “upregulation of cIAP-1 (and cIAP-2)”. Besides, in data set [3] (PHA-stimulated PBMCs from healthy donor, 3 days, WST-8 assay, read-out: CC50 (µM) ± SD), the cytotoxic concentration (CC50) at 3 days was greater than 100 µM.
